Experimental data from patent EP1366743A1, “Use of a derivative of 7-oxydated DHEA for treating dry skin” (L'OREAL, priority 2002, dated 2003).

Test system: sébocytes humains immortalisés en culture, issus de la lignée SZ95
Assay: Lipogenesis: total lipids produced by cultured immortalised human sebocytes (Nile Red fluorescence)
Assay type: cell-based
Conditions: for activation at 10 µM / activation at 1 µM: 48 h, total lipids, variation versus control, 2 days of treatment, confluent SZ95 sebocytes; for activation at 10 µM: 10^-5 M in 0,1% DMSO, read-out: % de variation à 10^-5 M; for activation at 1 µM: 10^-6 M in 0,1% DMSO, read-out: % de variation à 10^-6 M
Description: La 7α-OH DHEA et la 3-O-acétyl 7-benzoyloxy DHEA ont été testées sur un modèle de sébocytes humains immortalisés en culture, issus de la lignée SZ95 décrite dans Zouboulis, C.C., Seltmann, H., Neitzel, H. & Orfanos, C.E., Establishment and Characterization of an Immortalized Human Sebaceous Gland Cell Line, J. Invest. Dermatol., 113, 1011-1020 (1999).
Le test a consisté à mesurer la quantité de lipides produite par les sébocytes de la lignée (à confluence), en présence ou non d'agents actifs dilués dans le DMSO à 10^-5 M et 10^-6 M, de telle sorte que la quantité finale de DMSO dans le milieu de culture soit de 0,1%. Après 2 jours de traitement, les cellules adhérentes sont traitées par du Rouge de Nile (1µg/ml). Le contenu en lipides est ensuite quantifié par mesure de la fluorescence du colorant (deux couples d'excitation/émission : 485-540nm pour les lipides neutres et 540-620 nm pour les lipides non neutres). Les résultats sont donnés pour les lipides totaux (combinaison des deux mesures).
L'expérience est réalisée en sixplicate (produits dosés) ou dodeplicate (témoin) en plaque de 96 puits.
Le Tableau ci-dessous rassemble les résultats obtenus, en pourcentage de variation par rapport au témoin, ainsi que les coefficients p fournis par le test de Student et qui reflètent la significativité des mesures.

SMILES | activation at 10 µM [%] | activation at 1 µM [%] | lipogénèse (result in words, 10^-6 M)
CC(=O)O[C@H]1CC[C@@]2(C)C(=CC(OC(=O)c3ccccc3)[C@@H]3[C@@H]2CC[C@]2(C)C(=O)CC[C@@H]32)C1 (some centres unmarked) [3-O-acétyl 7-benzoyloxy DHEA] | 15 | 15 | efficace
C[C@]12CC[C@H](O)CC1=C[C@@H](O)[C@@H]1[C@@H]2CC[C@]2(C)C(=O)CC[C@@H]12 [7α-OH DHEA] | 15 | 6 | 
